Data: the NIST ThermoML archive (doi:10.1016/j.jct.2018.10.027)

Experiment: molar heat capacity at constant pressure; mn = molality of the nth substance listed, in mol/kg
Settings: 100 kPa, Liquid, Large sample (1 g) DSC

[Cl-].[Na+] [sodium chloride] + O
molar heat capacity at constant pressure [J/K/mol]
Settings	m1 = 0.2038	m1 = 0.3971	m1 = 1.032
278.15 K	75.59	75.32	74.79
283.15 K	75.42	75.21	74.42
288.15 K	75.27	75.07	74.37
293.15 K	75.25	74.95	74.28
298.15 K	75.23	74.91	74.26
303.15 K	75.22	74.9	74.22
308.15 K	75.2	74.87	74.21
313.15 K	75.18	74.87	74.2
318.15 K	75.19	74.88	74.21
323.15 K	75.2	74.96	74.26
328.15 K	75.21	74.99	74.27
333.15 K	75.25	75.03	74.28
338.15 K	75.27	75.11	74.32
343.15 K	75.38	75.21	74.34
348.15 K	75.47	75.26	74.45
